Results on 14 compounds are retold here after PMC5561212, “In Vitro Micropatterned Human Pluripotent Stem Cell Test (µP-hPST) for Morphometric-Based Teratogen Screening” (Scientific Reports, 2017).

In brackets after ≈: the same amount, converted by molar mass. Where two headings read alike, the source gives them in different places.

For data set [1] the following is noted: cited from earlier work.
In the next data set the test system is hPSC. Also noted: method as in PMID 24123775. To be noted: cited from earlier work.
Data set [2] has as its system human pluripotent stem cells. The arrangement: method as in PMID 24154490. To be noted: cited from earlier work.
For data set [3] the following is noted: cited from earlier work; for In vivo teratogenicity (in words): Supplementary Tables S2, S3; for In vivo teratogenicity: Table 1, known teratogenicity.
For data set [4], the system named is µP-hPSC colonies (H9) under mesoendoderm induction. The data set is described as follows: µP-hPST: mesoendoderm pattern disruption in µP-hPSC colonies and two-step teratogen classification. To be noted: for Mesoendoderm pattern disruption seen in T fluorescent images: 3 days of compound exposure, in words; for Teratogenicity in µP-hPST / Teratogenicity in µP-hPST (in words): two-step classification rule.

Data set [5] has the same test system. The arrangement: method as in earlier work. To be noted: compounds tested previously; cited from earlier work.
The subject of data set [6] is adult human dermal fibroblasts (aHDF). The data set is described as follows: Cytotoxicity assay (MTS), general cytotoxicity. In kind it is cell-based. To be noted: aHDF cells, 3 days, 25% inhibitory concentration. As for the experimental part: (§1) A set of 30 compounds of known teratogenicity was selected to establish and validate the µP-hPST (Table 1). The compounds include equal number of non-teratogens and teratogens, and differ in chemical property and therapeutic usage. Before tested in the µP-hPSC colonies, the cytotoxicity profile of each compound was acquired. Two cell lines, hPSC line H9 and adult human dermal fibroblast line aHDF, were tested to represent embryonic cytotoxicity and general cytotoxicity of the compound respectively (Supplementary Figs S1, S2). The IC25 values, which were the 25% inhibitory concentrations, were calculated as the highest non-cytotoxic concentrations of the compound (Table 2, Fig. 1).
(§2) Human embryonic cell line H9 (WiCell Research Institute, Inc) and adult human dermal fibroblast (aHDF, Lonza) were cultured as previously described. Briefly, H9 cells were cultured in tissue culture plates coated with Matrigel^TM (354277, BD Biosciences) in mTeSR^TM1 medium (05850, StemCell^TM Technologies). Dispase (07923, StemCell^TM Technologies) treatment and mechanical scraping were applied during normal subculture. The aHDF cells was cultured in DMEM medium (10569-010, Gibco), supplemented with 10% FBS (SV30160.03, Thermo Scientific Hyclone) and 1% Pen-Strep (09367-34, Nacalai Tesque). Cells were subcultured every 5–6 days using 0.25% Trypsion-EDTA (25200-114, Gibco) to detach the cells.
(§3) The adverse effect of test compounds on cell proliferation and viability was detected using CellTiter 96® AQueous One Solution Cell Proliferation Assay (MTS, G3580, Promega). 10,000 H9 cells or 500 aHDF cells were seeded in 96-well tissue culture plates. For H9 cells, Matrigel^TM was coated before seeding. For each compound, 8 concentrations from serial 5-fold dilutions were tested besides the vehicle controls. Cells were cultured for 3 days with medium half change every day before cell viability was measured. Each drug was tested in three independent runs and its IC25 values (inhibitory concentrations which can cause 25% of reduction in cell number) were acquired by logistic regression using OriginPro 9.

In data set [7] the test system is human embryonic cell line H9. The data set is described as follows: Cytotoxicity assay (MTS), embryonic cytotoxicity. Type of data set: cell-based. The settings on record: H9 cells, 3 days, 25% inhibitory concentration. The procedure: as §1, §2, §3
In data set [8] the test system is mouse embryonic stem cell. The arrangement: method as in PMID 19678733. The settings on record: cited from earlier work.
Data set [9] concerns µP-hPSC colonies (H9) under mesoendoderm induction.
Where [10] appears, read: human plasma, ref U.S. FDA website, EMA website or published journals (Supplementary Table S1).

`O=c1[nH]cc(F)c(=O)[nH]1` [5-Fluorouracil]: the Cmax in data set [1] (setting [10]) was 48400 ng/mL. Also, in the data set with hPSC, the “Teratogenicity in other in vitro assays” value was “TER[6], [7]”. In addition, the “Teratogenicity in other in vitro assays” value in data set [2] was “TER[6], [7]”. Besides, in data set [3], the “In vivo teratogenicity (in words)” value was “Teratogen” and the In vivo teratogenicity result is reported as “TER”. In data set [4], the “Mesoendoderm pattern disruption seen in T fluorescent images” value (from here on “Mesoendoderm pattern disruption seen”) was “promote both cell differentiation and migration”; the “Teratogenicity in µP-hPST” value is reported as “TER”.

Regarding `CC(C)(S)[C@@H](N)C(=O)O` [D-penicillamine], the LDC in [5] was 200 µg/mL. Besides, in [1] (compounds tested previously), the Cmax is 200000 ng/mL. Besides, in data set [3], the “In vivo teratogenicity (in words)” value is “Teratogen”. Also, the “Teratogenicity in µP-hPST (in words)” value in [4] was “Teratogen”.

The compound `CC/C(=C(/CC)c1ccc(O)cc1)c1ccc(O)cc1` [Diethylstilbestrol] displayed an IC25aHDF in [6] of 6.1 µg/mL (≈ 22.7 µM). The IC25H9 in [7] worked out at 8.8 µg/mL (≈ 32.8 µM). The highest concentration (Cmax) in data set [1] (setting [10]) was 5.6 ng/mL. The “Teratogenicity in other in vitro assays” value in data set [2] was “TER[7]”. In [3], the “In vivo teratogenicity (in words)” value is listed as “Teratogen” and the In vivo teratogenicity entry is given as “TER”. For the same compound, in data set [4], the “Mesoendoderm pattern disruption seen” value is “promote cell migration”, the “Teratogenicity in µP-hPST” value is “NON” and the “Teratogenicity in µP-hPST (in words)” value is on record as “misclassified as a non-teratogen”.

On to `COc1cccc2c1C(=O)c1c(O)c3c(c(O)c1C2=O)C[C@@](O)(C(=O)CO)C[C@@H]3O[C@H]1C[C@H](N)[C@H](O)[C@H](C)O1` [Doxorubicin], for which the IC25aHDF in data set [6] (listed as Doxirubicin) is < 1 µg/mL. This compound also showed an IC25H9 in [7] of 0.0002 µg/mL (≈ 0.000368 µM). The IC25H9 in data set [7] (listed as Doxirubicin) is < 1 µg/mL. Moreover, the highest concentration (Cmax) in data set [1] (setting [10]) is 370 ng/mL. Moreover, the “Teratogenicity in other in vitro assays” value in [2] was “TER[7]”. In data set [3], the “In vivo teratogenicity (in words)” value is “Teratogen” and the In vivo teratogenicity entry is “TER”. Further, the “Teratogenicity in µP-hPST” value in data set [4] is recorded as “TER”.

As for `COc1ccc2nc([S@@+]([O-])Cc3ncc(C)c(OC)c3C)[nH]c2c1` [Esomeprazole], the IC25aHDF in data set [6] is 42.1 µg/mL (≈ 122 µM). The compound also came in with an IC25H9 in data set [7] of 38.9 µg/mL (≈ 113 µM). Further, the peak concentration (Cmax) in data set [1] (setting [10]) is 1620 ng/mL. Besides, the “Teratogenicity in other in vitro assays” value in [2] is “NON[7]”. Besides, in data set [3], the In vivo teratogenicity result is recorded as “NON”. The “Teratogenicity in µP-hPST” value in data set [4] was “NON”.

In data set [6], `NS(=O)(=O)c1cc(C(=O)O)c(NCc2ccco2)cc1Cl` [Furosemide] registered an IC25aHDF of 30 µg/mL (≈ 90.7 µM). In addition, the IC25H9 in data set [7] is 362 µg/mL (≈ 1090 µM). For the same compound, in data set [8], the “Classification in mEST (in words)” value was “misclassified” and the “Teratogenicity in other in vitro assays” value is “NON[28]”. In addition, in data set [3], the “In vivo teratogenicity (in words)” value was “Teratogen” and the In vivo teratogenicity entry is recorded as “TER”. Besides, in [4], the “Teratogenicity in µP-hPST” value is “TER” and the “Teratogenicity in µP-hPST (in words)” value was “teratogen”.

Turning to `C[C@](N)(Cc1ccc(O)c(O)c1)C(=O)O` [Methyldopa], the IC25aHDF in [6] turned out to be 15.9 µg/mL (≈ 75.3 µM). For the same compound, the IC25H9 in [7] was found to be 23.2 µg/mL (≈ 110 µM). In addition, the Cmax in data set [1] (setting [10]) was 7500 ng/mL. For the same compound, the “Teratogenicity in other in vitro assays” value in data set [2] is “NON[7]”. In data set [3], the In vivo teratogenicity result is on record as “NON”. Further, in data set [4], the “Teratogenicity in µP-hPST” value was “NON”.

In the case of `CC1=C(/C=C/C(C)=C/C=C/C(C)=C/C(=O)O)C(C)(C)CCC1` [Retinoid acid], in [9], the “Step1: Is LDC <= IC25 aHDF & IC25H9?” value is “Y” and the “Teratogenicity in µP-hPST (in words)” value is given as “Teratogen”. For the same compound, the LDC in [5] was 0.00036 µg/mL. Further, in data set [1] (compounds tested previously), the highest concentration (Cmax) is 347 ng/mL. Moreover, the “In vivo teratogenicity (in words)” value in data set [3] is “Teratogen”.

In turn, `CCN(CC)CCNC(=O)c1c(C)[nH]c(/C=C2\C(=O)Nc3ccc(F)cc32)c1C` [Sunitinib] came in with an IC25H9 in data set [7] of 0.89 µg/mL (≈ 2.23 µM). In data set [1] (setting [10]), the Cmax is 30 ng/mL. The “Teratogenicity in other in vitro assays” value in data set [2] was “TER[7]”. Besides, in data set [3], the “In vivo teratogenicity (in words)” value is given as “Teratogen” and the In vivo teratogenicity result is on record as “TER”. Also, in [4], the “Mesoendoderm pattern disruption seen” value is “promote mesoendoderm differentiation while decrease collective cell migration” and the “Teratogenicity in µP-hPST” value is “TER”.

Take `O=C1CCC(N2C(=O)c3ccccc3C2=O)C(=O)N1` (centres unmarked) [Thalidomide]: the LDC in [5] is 30 µM. Also, the maximum concentration (Cmax) in data set [1] (compounds tested previously, read-out: Cmax) is 10.9 µM. Further, the “In vivo teratogenicity (in words)” value in data set [3] is listed as “Teratogen”. Also, the “Teratogenicity in µP-hPST (in words)” value in data set [4] is on record as “Teratogen”.

With `Cc1ncc(C[n+]2csc(CCO)c2C)c(N)n1` [Thiamine], the IC25aHDF in data set [6] is >1000 µg/mL. For the same compound, in [7], the IC25H9 was >1000 µg/mL. Besides, the highest concentration (Cmax) in data set [1] (setting [10]) is 110 ng/mL. In the data set on hPSC, the “Teratogenicity in other in vitro assays” value was “NON[6]”. Moreover, in [3], the “In vivo teratogenicity (in words)” value is reported as “Non-teratogen” and the In vivo teratogenicity result is listed as “NON”. Besides, in data set [4], the “Mesoendoderm pattern disruption seen” value was “slow down or prevent mesoendoderm cell migration” and the “Teratogenicity in µP-hPST” value is listed as “NON”.

With `CCCC(CCC)C(=O)O` [Valproic acid], in [5], the LDC is 100 µM. Further, in data set [3], the “In vivo teratogenicity (in words)” value is given as “Teratogen”. In addition, in [4], the “Teratogenicity in µP-hPST (in words)” value was “Teratogen”.

In data set [6], `COc1cc2c(Nc3ccc(Br)cc3F)ncnc2cc1OCC1CCN(C)CC1` [Vandetanib] gave an IC25aHDF of 1.1 µg/mL (≈ 2.31 µM). In data set [7], this compound came in with an IC25H9 of 0.3 µg/mL (≈ 0.631 µM). Besides, the Cmax in data set [1] (setting [10]) is 400 ng/mL. In addition, in [2], the “Teratogenicity in other in vitro assays” value is “TER[7]”. For the same compound, in data set [3], the “In vivo teratogenicity (in words)” value is “Teratogen” and the In vivo teratogenicity entry is given as “TER”. For the same compound, the “Teratogenicity in µP-hPST” value in data set [4] was “TER”.

Take `O=C1Cc2cc(CCN3CCN(c4nsc5ccccc45)CC3)c(Cl)cc2N1` [Ziprasidone]: in data set [6], the IC25aHDF was 2.7 µg/mL (≈ 6.54 µM). The IC25H9 in data set [7] was determined as 14.4 µg/mL (≈ 34.9 µM). The maximum concentration (Cmax) in data set [1] (setting [10]) is 200 ng/mL. Also, the “Teratogenicity in other in vitro assays” value in data set [2] was “TER[7]”. Also, in data set [3], the “In vivo teratogenicity (in words)” value is reported as “Teratogen” and the In vivo teratogenicity entry was “TER”. In addition, the “Teratogenicity in µP-hPST” value in data set [4] is listed as “TER”.
